This is an account of results in ChEMBL document CHEMBL1201862, “PubChem BioAssay data set” (2004).

Test systems include 786-0; CCRF-CEM; DU-145; HCT-116; HT-29; Hs-578T; IGROV-1; KM12; M14; MCF7; MDA-MB-231; Malme-3M; OVCAR-3; SF-268; SF-295; SF-539; SK-MEL-28; SK-MEL-2; SNB-19; UACC-62.
Test in all cases: inhibition of tumour cell growth, NCI panel, 48 h

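Five concentrations, 48 hours, 96-well plates. The concentration for 50% growth inhibition is given as GI50.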 Active and inactive are the calls of the source. Cut-off read from the data, not from the text of the source: active = GI50 up to about 1.1 µM and inactive = higher.

Take `CC(=O)N1NC(c2ccccc2)=CC(=O)/C1=C/C(=O)c1ccccc1`: the GI50 is > 100 µM (inactive) with 786-0; 29.8 µM (inactive) with CCRF-CEM; > 100 µM (inactive) in the assay on DU-145; 62.2 µM (inactive) with HCT-116; > 100 µM (inactive) with HT-29; 39.9 µM (inactive) in the assay on Hs-578T. In addition, the GI50 in the assay with IGROV-1 is 34.3 µM (inactive); in the assay on KM12, 75.5 µM (inactive); with M14, 82.2 µM (inactive); in the assay on MCF7, 43.7 µM (inactive); in the assay on MDA-MB-231, > 100 µM (inactive); with Malme-3M, 37.6 µM (inactive). Moreover, the GI50 in the assay with OVCAR-3 was 28.6 µM (inactive); in the assay with SF-268, 29.2 µM (inactive); in the assay on SF-295, 58.2 µM (inactive); with SF-539, 32.1 µM (inactive); in the assay with SK-MEL-28, > 100 µM (inactive); with SK-MEL-2, > 100 µM (inactive). Also, the GI50 with SNB-19 was 58.7 µM (inactive); in the assay with UACC-62, 42.5 µM (inactive).
Take `N#Cc1c(NC(=O)C(F)(F)F)sc2c3c(=O)c4ccccc4c(=O)c=3oc3ccccc3c12`: the GI50 in the assay with 786-0 is 25.6 µM (inactive); in the assay on CCRF-CEM it was 4.24 µM (inactive); with DU-145, 15.3 µM (inactive); in the assay on HCT-116, 11.9 µM (inactive); in the assay with HT-29, 19.2 µM (inactive); in the assay with Hs-578T it was 2.49 µM (inactive). Also, the GI50 in the assay with IGROV-1 was 11.9 µM (inactive); in the assay with KM12, 9.84 µM (inactive); with M14, 21.7 µM (inactive); in the assay with MCF7, 20.2 µM (inactive); with MDA-MB-231, 24.3 µM (inactive); with Malme-3M, 1.1 µM (active). The GI50 in the assay with OVCAR-3 is 10.8 µM (inactive); in the assay with SF-268, 7.98 µM (inactive); in the assay on SF-295 it was 11.7 µM (inactive); in the assay with SF-539, 7.24 µM (inactive); in the assay on SK-MEL-28 it was 20.4 µM (inactive); with SK-MEL-2, 15 µM (inactive). Further, the GI50 is 20.3 µM (inactive) in the assay with SNB-19 and 7.55 µM (inactive) in the assay with UACC-62.
For the compound `C=C(C)COC1CCCCO1` (stereo not given), the GI50 with 786-0, in the assay with CCRF-CEM, in the assay with DU-145, in the assay on HCT-116, in the assay with HT-29 and in the assay with Hs-578T was > 100 µM (inactive) each time. The GI50 in the assay with IGROV-1, in the assay with KM12, in the assay with M14, in the assay with MCF7, in the assay with MDA-MB-231 and in the assay with Malme-3M was > 100 µM (inactive) throughout. The GI50 in the assay on OVCAR-3, in the assay with SF-268, in the assay on SF-295, in the assay with SF-539, in the assay with SK-MEL-28 and in the assay with SK-MEL-2 was > 100 µM (inactive) throughout. Also, the GI50 with SNB-19 and with UACC-62 was > 100 µM (inactive) throughout.
As to `COc1ccc(NC(=S)N/N=C/c2cccc(C)n2)cc1`, the GI50 with 786-0 was 3.98 µM (inactive); with CCRF-CEM, 2.82 µM (inactive); in the assay with DU-145 it was 5.56 µM (inactive); in the assay with HCT-116, 3.33 µM (inactive); in the assay on HT-29, 3.94 µM (inactive); in the assay with Hs-578T, 24.7 µM (inactive). The GI50 with IGROV-1 is 2.37 µM (inactive); with KM12 it was 3.98 µM (inactive); with M14, 2.4 µM (inactive); with MCF7, 3.59 µM (inactive); in the assay with MDA-MB-231 it was 3.9 µM (inactive); in the assay with Malme-3M, 3.13 µM (inactive). In addition, the GI50 was 3.48 µM (inactive) with OVCAR-3; 3.94 µM (inactive) with SF-268; 4.09 µM (inactive) with SF-295; 6.12 µM (inactive) in the assay on SF-539; 5.68 µM (inactive) in the assay with SK-MEL-28; 6.4 µM (inactive) in the assay with SK-MEL-2. Further, the values for the GI50 in the assay with SNB-19 and in the assay on UACC-62 were 7.16 µM (inactive) and 2.24 µM (inactive), respectively.
Regarding `O=C(CNC(=O)c1ccccc1)Oc1c(Cl)c(Cl)c(Cl)c(Cl)c1Cl`, the GI50 is 50.5 µM (inactive) in the assay with 786-0; 38.7 µM (inactive) with CCRF-CEM; 23.4 µM (inactive) in the assay with DU-145; 56.4 µM (inactive) in the assay on HCT-116; 30.5 µM (inactive) in the assay with HT-29; 24.9 µM (inactive) in the assay on Hs-578T. Also, the GI50 in the assay with IGROV-1 is 27.8 µM (inactive); in the assay on KM12 it was 22.4 µM (inactive); in the assay with M14 it was 64.9 µM (inactive); in the assay with MCF7, 40.2 µM (inactive); with MDA-MB-231, 22.9 µM (inactive); in the assay on Malme-3M it was 28.8 µM (inactive). Also, the GI50 in the assay on OVCAR-3 was 25.4 µM (inactive); in the assay on SF-268, 40.6 µM (inactive); with SF-295, 33.2 µM (inactive); in the assay on SF-539, 28.2 µM (inactive); with SK-MEL-28, 39 µM (inactive); in the assay with SK-MEL-2, 21 µM (inactive). Besides, the GI50 with SNB-19 was 44.9 µM (inactive); with UACC-62, 21.9 µM (inactive).
Turning to `O=C(N/N=C\c1ccc2ccccc2c1)Nc1ccc([N+](=O)[O-])cc1`, the GI50 is 24 µM (inactive) with 786-0; 28.6 µM (inactive) in the assay on CCRF-CEM; 23.7 µM (inactive) in the assay on DU-145; 21.1 µM (inactive) in the assay with HCT-116; 21.3 µM (inactive) with HT-29; 32.9 µM (inactive) in the assay with Hs-578T. Moreover, the GI50 in the assay on IGROV-1 was 29.7 µM (inactive); in the assay on KM12, 33.4 µM (inactive); in the assay on M14, 32.2 µM (inactive); in the assay on MCF7, 22.3 µM (inactive); in the assay on MDA-MB-231, 32.2 µM (inactive); with Malme-3M it was 27.7 µM (inactive). Moreover, the GI50 is 20.2 µM (inactive) with OVCAR-3; 27 µM (inactive) in the assay with SF-268; 22.5 µM (inactive) in the assay on SF-295; 19.5 µM (inactive) with SF-539; 26.2 µM (inactive) with SK-MEL-28; 24 µM (inactive) in the assay on SK-MEL-2. In addition, the GI50 in the assay on SNB-19 was 24.3 µM (inactive); with UACC-62, 24.7 µM (inactive).
With `Cc1nc2ccccc2n1Cc1ccc(NC(=S)Nc2ccccc2)cc1`, the GI50 with 786-0 is > 100 µM (inactive); with CCRF-CEM, 36.8 µM (inactive); in the assay with DU-145 it was 73.8 µM (inactive); with HCT-116, 31.6 µM (inactive); in the assay with HT-29 it was 32.8 µM (inactive); in the assay with Hs-578T, > 100 µM (inactive). Further, the GI50 with IGROV-1 is > 100 µM (inactive); in the assay with KM12 it was 54.6 µM (inactive); in the assay on M14 it was 56.1 µM (inactive); in the assay with MCF7, 27.4 µM (inactive); in the assay with MDA-MB-231 it was 36.4 µM (inactive); with Malme-3M it was 30.4 µM (inactive). Moreover, the GI50 in the assay on OVCAR-3 is 27.9 µM (inactive); in the assay on SF-268, 91 µM (inactive); in the assay on SF-295, 34.3 µM (inactive); in the assay with SF-539, 23.8 µM (inactive); in the assay with SK-MEL-28, 66.7 µM (inactive); with SK-MEL-2 it was 73.8 µM (inactive). Further, the figures for the GI50 with SNB-19 and in the assay on UACC-62 were > 100 µM (inactive) and 58.7 µM (inactive), respectively.
For the compound `CC(=O)C(C(=N)C#N)C(=O)Nc1ccccc1` (stereo not given), the GI50 in the assay with 786-0 is > 100 µM (inactive); in the assay with CCRF-CEM it was > 100 µM (inactive); with DU-145 it was > 100 µM (inactive); with HCT-116, > 100 µM (inactive); in the assay with HT-29, > 100 µM (inactive); in the assay with Hs-578T it was 44.9 µM (inactive). For the same compound, the GI50 with IGROV-1, in the assay on KM12, with M14, in the assay with MCF7, in the assay with MDA-MB-231 and in the assay on Malme-3M was > 100 µM (inactive) in each case. The GI50 in the assay with OVCAR-3, in the assay with SF-268, in the assay on SF-295, with SF-539, in the assay on SK-MEL-28 and in the assay with SK-MEL-2 was > 100 µM (inactive) throughout. The GI50 in the assay on SNB-19 and in the assay with UACC-62 was > 100 µM (inactive) in each case.
Regarding `CC(C)(C)OC(=O)CN1CCN(CC(=O)N2CCN(C(=O)OCc3ccccc3)CC2)CCN(CC(=O)OC(C)(C)C)CCN(CC(=O)N2CCN(C(=O)OCc3ccccc3)CC2)CC1`, the GI50 is 2.21 µM (inactive) in the assay on 786-0; 1.41 µM (inactive) in the assay with CCRF-CEM; 6.95 µM (inactive) in the assay on DU-145; 3.11 µM (inactive) in the assay on HCT-116; 0.318 µM (active) in the assay with HT-29; 1.79 µM (inactive) with Hs-578T. The GI50 is 0.853 µM (active) in the assay with IGROV-1; 1.42 µM (inactive) with KM12; 3.21 µM (inactive) with M14; 2.35 µM (inactive) with MCF7; 1.64 µM (inactive) in the assay on MDA-MB-231; 2.33 µM (inactive) with Malme-3M. The GI50 in the assay with OVCAR-3 was 2.83 µM (inactive); with SF-268, 2.48 µM (inactive); with SF-295, 3.35 µM (inactive); in the assay on SF-539 it was 2.17 µM (inactive); in the assay with SK-MEL-28, 4.93 µM (inactive); in the assay with SK-MEL-2, 1.82 µM (inactive). Besides, the GI50 is 3.48 µM (inactive) in the assay with SNB-19 and 2.67 µM (inactive) in the assay on UACC-62.
Take `COC(=O)C1=C(OC(=O)/C(=C/c2ccccc2)c2ccc(Cl)cc2Cl)C(C(=O)OC)[C@@]2(O)[C@@H](C(=O)OC)[C@H](C)C[C@@H]1[C@@H]2C(=O)OC` (stereo not given in full): the GI50 in the assay on 786-0, in the assay on CCRF-CEM, in the assay with DU-145, in the assay with HCT-116, in the assay on HT-29 and with Hs-578T was > 100 µM (inactive) throughout. For the same compound, the GI50 with IGROV-1, in the assay on KM12, in the assay with M14, with MCF7, in the assay on MDA-MB-231 and in the assay on Malme-3M was > 100 µM (inactive) throughout. Further, the GI50 in the assay on OVCAR-3, in the assay with SF-268, in the assay on SF-295, in the assay on SF-539, with SK-MEL-28 and with SK-MEL-2 was > 100 µM (inactive) each time. Also, the GI50 in the assay on SNB-19 and with UACC-62 was > 100 µM (inactive) in each case.
